Test results reported in PubChem BioAssay (NCI).
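Step 1: Grow cells in 96-well plates. Step 2: Expose to compound for 48 hours at 5 concentrations. Step 3: Interpolate endpoints linearly; if unreached, use highest concentration. At the GI50, growth is halved. TGI: concentration producing complete growth inhibition.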

Key:
Experiment in all cases: inhibition of tumour cell growth, NCI panel, 48 h
CAKI-1 renal = tested on: CAKI-1 renal
KM12 colon = tested on: KM12 colon
OVCAR-3 ovarian = tested on: OVCAR-3 ovarian
MOLT-4 leukemia = tested on: MOLT-4 leukemia
HOP-92 NSCLC = tested on: HOP-92 NSCLC
SF-295 CNS = tested on: SF-295 CNS
HCT-15 colon = tested on: HCT-15 colon
MALME-3M melanoma = tested on: MALME-3M melanoma
CCRF-CEM leukemia = tested on: CCRF-CEM leukemia
RXF 393 renal = tested on: RXF 393 renal

Compound	TGI (CAKI-1 renal)	TGI (KM12 colon)	TGI (OVCAR-3 ovarian)	TGI (MOLT-4 leukemia)	TGI (HOP-92 NSCLC)	TGI (SF-295 CNS)	TGI (HCT-15 colon)	TGI (MALME-3M melanoma)	TGI (CCRF-CEM leukemia)	GI50 (CAKI-1 renal)	GI50 (OVCAR-3 ovarian)	GI50 (SF-295 CNS)	GI50 (HCT-15 colon)	GI50 (CCRF-CEM leukemia)	TGI (RXF 393 renal)	GI50 (KM12 colon)	GI50 (MOLT-4 leukemia)	GI50 (RXF 393 renal)	GI50 (MALME-3M melanoma)	GI50 (HOP-92 NSCLC)
CCCCCC(C(O)C#N)C(O)(C(F)(F)F)C(F)(F)F (centres undefined)	> 10 µM	> 10 µM	> 10 µM	> 10 µM	> 10 µM	> 10 µM	> 10 µM	> 10 µM	> 10 µM											
c1cc[c]([Sn]([S]c2cccc3cccnc23)([c]2ccccc2)[c]2ccccc2)cc1	0.0421 µM		0.0346 µM			0.144 µM	0.0467 µM		0.0744 µM	0.0114 µM	0.0158 µM	0.0462 µM	0.0196 µM	0.0158 µM						
COc1ccc(/C=C/C(=O)c2sc(-n3nc(-c4ccccc4)cc3-c3ccccc3)nc2C)cc1OC	> 100 µM	> 100 µM	62.5 µM	64.8 µM		74.2 µM	> 100 µM	> 100 µM	92.1 µM						> 100 µM					
Cc1ncc([N+](=O)[O-])n1CCNC(=O)CCCCn1ccnc1[N+](=O)[O-]	> 100 µM	> 100 µM	> 100 µM	> 100 µM		> 100 µM	> 100 µM	> 100 µM	> 100 µM											
Cc1ccc(C(=O)CC(Sc2cccc(Cl)c2Cl)c2ccc(Cl)cc2)cc1C (centres undefined)	45.8 µM	34.1 µM	31.1 µM	> 100 µM		37.2 µM		39.9 µM	94.4 µM	21.6 µM	15.4 µM	16.9 µM		18.7 µM	56.9 µM	15.4 µM	33 µM	25.8 µM	15.5 µM	
COC(=O)C(Cc1ccccc1)N/C=C\C(=O)c1ccc(Cl)cc1 (centres undefined)	44.4 µM	47.1 µM		> 100 µM	> 100 µM	35.8 µM	59.3 µM		> 100 µM	21.3 µM		14.8 µM	23.6 µM	39.7 µM	53.3 µM	21.2 µM	35.2 µM	20.4 µM		43.7 µM
NC1=NC(=O)C(CC(=O)Nc2ccc([N+](=O)[O-])cc2[N+](=O)[O-])S1 (centres undefined)		> 100 µM	> 100 µM	> 100 µM	89.4 µM	> 100 µM		> 100 µM	> 100 µM						> 100 µM					
Clc1ccc(CNc2nc3ccccc3nc2-c2cccs2)c(Cl)c1			> 100 µM	> 100 µM	76.6 µM	> 100 µM	> 100 µM	> 100 µM	> 100 µM						> 100 µM					
O=C1CCn2c([nH]c3cccc4cccc2c43)=N1				> 100 µM			> 100 µM		> 100 µM						> 100 µM					
CNC(=O)c1cn(C[C@H](F)CCc2ccc(NC(=O)Cc3cc(OC4CC(F)(F)C4)cc(C)n3)nn2)nn1		> 100 µM		> 100 µM	> 100 µM	> 100 µM	> 100 µM	> 100 µM	> 100 µM			> 100 µM	> 100 µM	> 45.8 µM	> 100 µM	> 100 µM	> 93.5 µM	> 31.5 µM	> 100 µM	23 µM
